Source: the supplement of paper PMC11061612

Key:
Experiment in all cases: combination Emax (second highest fraction inhibited in the dose matrix, 72 h); higher = more inhibition; extreme values may be limits of the assay
[1] = system: P32-ISH (Burkitt's Lymphoma)
In short: (§1)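 After 24 hours at 37°C and 5% CO2 in 1536-well plates, cells in DMEM/F12 or RPMI plus 10% FBS received two-drug dose matrices for 72 hours. Viability came from CellTiter-Glo 2.0 luminescence and was scaled as inhibition, anchored at 0 by vehicle wells and at 1 by blank wells. Combination Emax is taken as the second-highest inhibition in the matrix, and Bliss excess as the observed combination effect less EA + EB − EA·EB, with EA and EB the single-agent effects.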

KALS-1 (Glioblastoma) = system: KALS-1 (Glioblastoma)
In short: as §1

[2] = system: BxPC-3 (Pancreatic Carcinoma)
In short: as §1

[3] = system: MOLP-8 (Plasma Cell Myeloma)
In short: as §1

NCI-H226 (Mesothelioma) = system: NCI-H226 (Mesothelioma)
In short: as §1

SK-N-SH (Neuroblastoma) = system: SK-N-SH (Neuroblastoma)
In short: as §1

[4] = system: OAW-28 (Ovarian Carcinoma)
In short: as §1

[5] = system: NCI-H3118 (Head and Neck Carcinoma)
In short: as §1

[6] = system: Raji (Burkitt's Lymphoma)
In short: as §1

[7] = system: SNU-407 (Colorectal Carcinoma)
In short: as §1

[8] = system: PA-TU-8988T (Pancreatic Carcinoma)
In short: as §1

[9] = system: TUR (Acute Myeloid Leukemia)
In short: as §1

[10] = system: MONO-MAC-6 (Acute Myeloid Leukemia)
In short: as §1

[11] = system: SNU-C2B (Colorectal Carcinoma)
In short: as §1

[12] = system: MS-1 (Small Cell Lung Carcinoma)
In short: as §1

[13] = system: HT-1080 (Other Solid Carcinomas)
In short: as §1

[14] = system: ZR-75-30 (Breast Carcinoma)
In short: as §1

[15] = system: MDA-MB-415 (Breast Carcinoma)
In short: as §1

[16] = system: NCI-H1963 (Small Cell Lung Carcinoma)
In short: as §1

| SMILES | combination Emax [1] | combination Emax (KALS-1 (Glioblastoma)) | combination Emax [2] | combination Emax [3] | combination Emax (NCI-H226 (Mesothelioma)) | combination Emax (SK-N-SH (Neuroblastoma)) | combination Emax [4] | combination Emax [5] | combination Emax [6] | combination Emax [7] | combination Emax [8] | combination Emax [9] | combination Emax [10] | combination Emax [11] | combination Emax [12] | combination Emax [13] | combination Emax [14] | combination Emax [15] | combination Emax [16] |
| --- | --- | --- | --- | --- | --- | --- | --- | --- | --- | --- | --- | --- | --- | --- | --- | --- | --- | --- | --- |
| CN(C)CCCOc1ccc(-c2ccc3ncc4c(c3c2)n(C2CCOCC2)c(=O)n4C)cn1 [AZD0156] + O=C(c1cc(Cc2n[nH]c(=O)c3ccccc23)ccc1F)N1CCN(C(=O)C2CC2)CC1 [Olaparib] (first compound max 3 µM, partner max 3 µM) | 0.628 | 0.135 | 0.0983 | 0.67 | 0.251 | 0.292 | 0.284 | 0.305 | 0.482 | 0.296 | 0.211 | 0.273 | 0.461 | 0.239 | 0.438 | 0.134 | 0.283 | 0.325 | – |
| C=CCn1c(=O)c2cnc(Nc3ccc(N4CCN(C)CC4)cc3)nc2n1-c1cccc(C(C)(C)O)n1 [AZD1775] + C1CN(CCC1(C(=O)N[C@@H](CCO)C2=CC=C(C=C2)Cl)N)C3=NC=NC4=C3C=CN4 [Capivasertib] (first compound max 3 µM, partner max 3 µM) | 1 | 0.766 | 0.681 | 0.91 | 0.45 | 0.711 | 0.593 | 0.947 | 0.977 | 0.675 | 0.851 | 0.955 | 0.95 | 0.702 | 0.911 | 0.561 | 0.441 | 0.764 | – |
| COc1nnc2ccc(N3CCC(c4ccc(OCCN5CCN(C)C(=O)[C@H]5C)cc4)CC3)nn12 [AZD5153] + C=CCn1c(=O)c2cnc(Nc3ccc(N4CCN(C)CC4)cc3)nc2n1-c1cccc(C(C)(C)O)n1 [AZD1775] (first compound max 1 µM, partner max 1 µM) | 0.982 | 0.723 | 0.529 | 0.956 | 0.448 | 0.645 | 0.701 | 0.754 | 0.711 | 0.89 | 0.778 | 0.867 | 0.989 | 0.584 | 0.964 | 0.522 | 0.309 | 0.44 | 0.952 |
| COc1nnc2ccc(N3CCC(c4ccc(OCCN5CCN(C)C(=O)[C@H]5C)cc4)CC3)nn12 [AZD5153] + CC1(C)CCC(CN2CCN(c3ccc(C(=O)NS(=O)(=O)c4ccc(NCC5CCOCC5)c([N+](=O)[O-])c4)c(Oc4cnc5[nH]ccc5c4)c3)CC2)=C(c2ccc(Cl)cc2)C1 [Venetoclax] (first compound max 1 µM, 7x7, partner max 1 µM) | 0.701 | 0.616 | 0.473 | 0.945 | 0.438 | 0.623 | 0.352 | 0.568 | 0.62 | 0.902 | 0.664 | 0.458 | 0.989 | 0.545 | 0.906 | 0.322 | 0.235 | 0.409 | 0.988 |
| COc1nnc2ccc(N3CCC(c4ccc(OCCN5CCN(C)C(=O)[C@H]5C)cc4)CC3)nn12 [AZD5153] + CCN(CCO)CCCOc1ccc2c(Nc3cc(CC(=O)Nc4cccc(F)c4)[nH]n3)ncnc2c1 [AZD2811] (first compound max 1 µM, 7x7, partner max 1 µM) | 0.873 | 0.606 | 0.491 | 0.933 | 0.443 | 0.532 | 0.431 | 0.55 | 0.558 | 0.866 | 0.695 | 0.827 | 0.995 | 0.581 | 0.854 | 0.387 | 0.313 | 0.502 | 0.882 |
| COc1nnc2ccc(N3CCC(c4ccc(OCCN5CCN(C)C(=O)[C@H]5C)cc4)CC3)nn12 [AZD5153] + CN(CC[C@H](CSC1=CC=CC=C1)NC2=C(C=C(C=C2)S(=O)(=O)NC(=O)C3=CC=C(C=C3)N4CCC(CC4)[C@H](C5=CC=CC=C5C6=CC=C(C=C6)Cl)O)S(=O)(=O)C(F)(F)F)CCO [AZD4320] (first compound max 1 µM, 7x7, partner max 1 µM) | 0.68 | – | – | 0.98 | – | – | 1 | – | 0.579 | 0.902 | 0.695 | 0.626 | – | 0.55 | – | 0.618 | – | – | 1 |
| COc1nnc2ccc(N3CCC(c4ccc(OCCN5CCN(C)C(=O)[C@H]5C)cc4)CC3)nn12 [AZD5153] + C[C@@H]1COCCN1C2=NC(=NC(=C2)C3(CC3)[S@](=N)(=O)C)C4=C5C=CNC5=NC=C4 [AZD6738] (first compound max 1 µM, 7x7, partner max 10 µM) | 0.957 | 0.812 | 0.602 | 0.987 | 0.37 | 0.861 | 0.851 | 0.61 | 0.875 | 0.958 | 0.778 | 0.984 | 1 | 0.658 | 1 | 0.579 | 0.34 | 0.597 | 0.91 |
| COc1nnc2ccc(N3CCC(c4ccc(OCCN5CCN(C)C(=O)[C@H]5C)cc4)CC3)nn12 [AZD5153] + Cc1c2c(nn1C)CSCc1cc(n(C)n1)CSc1cc(c3ccccc3c1)OCCCc1c(C(=O)O)n(C)c3c-2c(Cl)ccc13 [AZD5991] (first compound max 1 µM, 7x7, partner max 1 µM) | 1 | 0.814 | 0.463 | 1 | 0.407 | 0.526 | 0.666 | 0.678 | 0.896 | 0.977 | 0.886 | 0.998 | 1 | 0.568 | 0.961 | 0.378 | 0.29 | 0.693 | 0.89 |
| COc1nnc2ccc(N3CCC(c4ccc(OCCN5CCN(C)C(=O)[C@H]5C)cc4)CC3)nn12 [AZD5153] + Cn1cnc2c(F)c(Nc3ccc(Br)cc3Cl)c(C(=O)NOCCO)cc21 [Selumetinib] (first compound max 1 µM, 7x7, partner max 10 µM) | 0.65 | 0.738 | 0.616 | 0.98 | 0.377 | 0.521 | 0.498 | 0.63 | 0.535 | 0.938 | 0.778 | 0.744 | 0.986 | 0.573 | 0.817 | 0.596 | 0.305 | 0.429 | 0.757 |
| Cc1c2c(nn1C)CSCc1cc(n(C)n1)CSc1cc(c3ccccc3c1)OCCCc1c(C(=O)O)n(C)c3c-2c(Cl)ccc13 [AZD5991] + CN(C)CCCOc1ccc(-c2ccc3ncc4c(c3c2)n(C2CCOCC2)c(=O)n4C)cn1 [AZD0156] (first compound max 1 µM, 7x7, partner max 1 µM) | 1 | 0.273 | 0.174 | 1 | 0.293 | 0.454 | 0.25 | 0.314 | 0.704 | 0.676 | 0.214 | 0.477 | 1 | 0.215 | 0.524 | 0.183 | 0.286 | 0.463 | 0.354 |
| NC1(C(=O)N[C@@H](CCO)c2ccc(Cl)cc2)CCN(c2ncnc3[nH]ccc23)CC1 [Capivasertib] + CC(=O)c1c(C)c2cnc(Nc3ccc(N4CCNCC4)cn3)nc2n(C2CCCC2)c1=O [Palbociclib] (first compound max 10 µM, 7x7, partner max 10 µM) | 0.774 | 0.398 | 0.23 | 0.655 | 0.3 | 0.454 | 0.191 | 0.519 | 0.491 | 0.678 | 0.456 | 0.876 | 0.728 | 0.424 | 0.266 | 0.101 | 0.396 | 0.769 | 0.477 |
| NC1(C(=O)N[C@@H](CCO)c2ccc(Cl)cc2)CCN(c2ncnc3[nH]ccc23)CC1 [Capivasertib] + CC(C)n1c(=O)n(C)c2cnc3cc(F)c(-c4ccc(OCCCN5CCCCC5)nc4)cc3c21 [AZD1390] (first compound max 10 µM, 7x7, partner max 0.3 µM) | 0.557 | 0.41 | 0.181 | 0.452 | 0.335 | 0.349 | 0.119 | 0.247 | 0.185 | 0.503 | 0.278 | 0.809 | 0.594 | 0.303 | 0.307 | 0.194 | 0.419 | 0.846 | 0.434 |
| CC(=O)c1c(C)c2cnc(Nc3ccc(N4CCNCC4)cn3)nc2n(C2CCCC2)c1=O [Palbociclib] + CN(CC[C@H](CSC1=CC=CC=C1)NC2=C(C=C(C=C2)S(=O)(=O)NC(=O)C3=CC=C(C=C3)N4CCC(CC4)[C@H](C5=CC=CC=C5C6=CC=C(C=C6)Cl)O)S(=O)(=O)C(F)(F)F)CCO [AZD4320] (first compound max 10 µM, 7x7, partner max 1 µM) | 0.735 | – | – | 0.542 | – | – | 0.889 | – | 0.455 | 0.483 | 0.33 | 0.381 | – | 0.599 | – | 0.415 | – | – | 1 |
| C[C@@H](c1ccc2nccn2c1)n1nnc2ncc(-c3cnn(C)c3)nc21 [Savolitinib] + CN(CC[C@H](CSC1=CC=CC=C1)NC2=C(C=C(C=C2)S(=O)(=O)NC(=O)C3=CC=C(C=C3)N4CCC(CC4)[C@H](C5=CC=CC=C5C6=CC=C(C=C6)Cl)O)S(=O)(=O)C(F)(F)F)CCO [AZD4320] (first compound max 1 µM, 7x7, partner max 1 µM) | 0.165 | – | – | 0.216 | – | – | 0.903 | – | 0.173 | 0.722 | 0.191 | 0.135 | – | 0.212 | – | 0.566 | – | – | 1 |
